Source: patent US12419890B2, “Administration of sumo-activating enzyme inhibitor and checkpoint inhibitors” (Takeda Pharmaceutical Company Limited, priority 2019, dated 2025)

Tested on: B16-F10 syngeneic mouse melanoma-derived subcutaneous tumor
Assay: B16-F10 Study 7: mouse B16-F10 syngeneic tumor model, individual tumor volume
Type: in vivo
Settings: delay from day 7 to day 10-12; of the 8 implanted tumors; Compound I-263a 7.5 mg/kg IV BIWx3 till Day 17
Description: B16-F10 Study 7: B16-F10 is a mouse melanoma cell line. B16-F10 mouse syngeneic tumor model was generated by subcutaneous inoculation with 0.08×10^6 B16-F10 cells (cell suspension) in 11 weeks old female C57BL/6 mice (Taconic Biosciences, Rensselaer, NY) in the flank. When the mean tumor volume reached approximately 50 mm^3, the animals were randomized into one vehicle control and five treatment groups (n=8/group). Mice were then dosed with 20% HPbCD or Compound I-263a or anti-mouse PD-1 antibody over a 17-day period. Tumor growth and body weight were measured twice per week during the treatment and post-treatment periods, and mice were humanely euthanized once they had reached their humane endpoint.
Study 7: A 0.75 mg/mL stock solution of Compound I-263a was formulated weekly in 20% HPβCD and administered intravenously (IV) based on exact animal body weight on each day of treatment, using a dosing volume of 10 mL/kg body weight. Final doses received were 7.5 mg/kg. Dosing volume for Compound I-263a was 0.2 mL. […]
Tumors were measured twice weekly using vernier calipers. Tumor volumes were calculated using standard equation: V=W^2×L/2, where V=volume, W=width, and L=length for the tumor. […] Tumor size and body weight were measured twice a week for the duration of the study. […]

Cc1sc(C(=O)c2cncnc2N[C@@H]2C[C@H](COS(N)(=O)=O)[C@@H](O)C2)cc1[C@@H]1NCCc2ccc(Cl)cc21 [Compound I-263a, [(1R,2S,4R)-4-{[5-({4-[(1R)-7-chloro-1,2,3,4-tetrahydroisoquinolin-1-yl]-5-methyl-2-thienyl}carbonyl)pyrimidin-4-yl]amino}-2-hydroxycyclopentyl]methyl sulfamate]
tumors with tumor growth delay: 2
